Test results as given in PubChem BioAssay AID248 (DTP/NCI, 2004).
Several values for one entry are separate records, joined by “and”; a condition that tells them apart may be missing. Equal entries are not always repeated. Toxic doses and inconclusive results are not listed. Rule as the data show it: active = T/C of 150% or more; inactive = T/C below 125%.

Test system: L1210 leukemia ip in BDF1 mice, survival T/C
Test: NCI In Vivo Anticancer Drug Screen. Data for tumor model L1210 Leukemia (intraperitoneal) in B6D2F1 (BDF1) mice
Conditions: endpoint: mean survival time, higher = longer survival
How it was run: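 Tumor was transplanted into mice, which were then dosed with test compound or vehicle alone. Survival was recorded for each group, and the treated figure was expressed relative to the control figure.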

[1] = dose: 100.0 mg/kg/injection, schedule: Q01DX001 (ip), vehicle: saline
[2] = dose: 200.0 mg/kg/injection, schedule: Q01DX001 (ip), vehicle: saline
[3] = dose: 400.0 mg/kg/injection, schedule: Q01DX001 (ip), vehicle: saline
[4] = dose: 100.0 mg/kg/injection, schedule: Q04DX003 (ip), vehicle: saline with Tween-80
[5] = dose: 400.0 mg/kg/injection, schedule: Q04DX003 (ip), vehicle: saline with Tween-80
[6] = dose: 100.0 mg/kg/injection, schedule: Q04DX003 (ip), vehicle: saline
[7] = dose: 200.0 mg/kg/injection, schedule: Q04DX003 (ip), vehicle: saline
[8] = dose: 400.0 mg/kg/injection, schedule: Q04DX003 (ip), vehicle: saline
[9] = dose: 200.0 mg/kg/injection, schedule: Q04DX003 (ip), vehicle: saline with Tween-80

Measured: T/C

Cc1ccc(C(=O)c2ccc([N+](=O)[O-])cc2)cc1
inactive: dose: 50.0 mg/kg/injection, schedule: Q01DX001 (ip), vehicle: saline 103 % of control | [1] 101 % of control | [2] 92 % of control | [3] 114 % of control

CC(/C(=N\N=C(N)N)c1ccccc1)N(C)C (stereo not drawn)
inactive: dose: 15.0 mg/kg/injection, schedule: Q01DX Z (ip), vehicle: methylcellulose (MC) 94 % of control | dose: 30.0 mg/kg/injection, schedule: Q01DX Z (ip), vehicle: methylcellulose (MC) 108 % of control | dose: 50.0 mg/kg/injection, schedule: Q01DX Z (oral), vehicle: methylcellulose (MC) 100 % of control | dose: 60.0 mg/kg/injection, schedule: Q01DX Z (ip), vehicle: methylcellulose (MC) 95 % of control | dose: 100.0 mg/kg/injection, schedule: Q01DX Z (oral), vehicle: methylcellulose (MC) 86 % of control | dose: 120.0 mg/kg/injection, schedule: Q01DX Z (ip), vehicle: methylcellulose (MC) 88 % of control

Nc1ccc(C(=O)CCCN2CCCCC2)cc1
inactive: dose: 12.5 mg/kg/injection, schedule: Q01DX009 (ip), vehicle: saline 103 % of control | dose: 25.0 mg/kg/injection, schedule: Q01DX009 (ip), vehicle: saline 97 % of control | dose: 50.0 mg/kg/injection, schedule: Q01DX009 (ip), vehicle: saline 100 % of control

Cc1cc(N(CCCOS(C)(=O)=O)CCCOS(C)(=O)=O)ccc1C=Nc1ccc2ccccc2c1
inactive: dose: 25.0 mg/kg/injection, schedule: Q04DX003 (ip), vehicle: saline with Tween-80 98 % of control | dose: 50.0 mg/kg/injection, schedule: Q04DX003 (ip), vehicle: saline with Tween-80 98 % of control | [4] 98 % of control | [5] 93 % of control

Clc1ccc2c(Cl)ccnc2c1
inactive: dose: 100.0 mg/kg/injection, schedule: Q04DX002 (ip), vehicle: gum acacia 91 % of control | dose: 200.0 mg/kg/injection, schedule: Q04DX002 (ip), vehicle: gum acacia 95 % of control

CC(C(=O)O)c1ccccc1 (stereo not drawn)
inactive: dose: 12.5 mg/kg/injection, schedule: Q01DX009 (ip), vehicle: saline with Tween-80 95 % of control | dose: 25.0 mg/kg/injection, schedule: Q01DX009 (ip), vehicle: saline with Tween-80 95 % of control | dose: 50.0 mg/kg/injection, schedule: Q01DX009 (ip), vehicle: saline with Tween-80 95 % of control and 90 % of control

CN(C)S(=O)(=O)c1ccc(CCCCCCc2ccc(S(=O)(=O)N(C)C)cc2)cc1
inactive: dose: 100.0 mg/kg/injection, schedule: Q01DX001 (ip), vehicle: carboxymethylcellulose (CMC) 96 % of control | dose: 200.0 mg/kg/injection, schedule: Q01DX001 (ip), vehicle: carboxymethylcellulose (CMC) 102 % of control | dose: 400.0 mg/kg/injection, schedule: Q01DX001 (ip), vehicle: carboxymethylcellulose (CMC) 91 % of control

O=C(Cc1ccccc1)Nc1cccnc1
inactive: dose: 75.0 mg/kg/injection, schedule: Q04DX003 (ip), vehicle: Klucel (hydroxypropylcellulose) (HPC) 102 % of control | dose: 100.0 mg/kg/injection, schedule: Q01DX001 (ip), vehicle: Klucel (hydroxypropylcellulose) (HPC) 97 % of control | dose: 150.0 mg/kg/injection, schedule: Q04DX003 (ip), vehicle: Klucel (hydroxypropylcellulose) (HPC) 114 % of control | dose: 200.0 mg/kg/injection, schedule: Q01DX001 (ip), vehicle: Klucel (hydroxypropylcellulose) (HPC) 103 % of control | dose: 300.0 mg/kg/injection, schedule: Q04DX003 (ip), vehicle: Klucel (hydroxypropylcellulose) (HPC) 104 % of control | dose: 400.0 mg/kg/injection, schedule: Q01DX001 (ip), vehicle: Klucel (hydroxypropylcellulose) (HPC) 92 % of control

O=C(Cn1cc(F)c(=O)[nH]c1=O)c1cccs1
inactive: dose: 100.0 mg/kg/injection, schedule: Q01DX009 (ip), vehicle: saline 89 % of control | [6] 100 % of control | dose: 200.0 mg/kg/injection, schedule: Q01DX009 (ip), vehicle: saline 89 % of control | [7] 106 % of control | dose: 400.0 mg/kg/injection, schedule: Q01DX009 (ip), vehicle: saline 89 % of control | [8] 111 % of control

O=[N+]([O-])c1ccc(C[Se]c2ncnc3c(C4OC(CO)C(O)C4O)[nH]nc23)cc1 (stereo not drawn)
inactive: dose: 12.5 mg/kg/injection, schedule: Q01DX005 (ip), vehicle: saline 98 % of control | dose: 25.0 mg/kg/injection, schedule: Q01DX005 (ip), vehicle: saline 104 % of control | dose: 50.0 mg/kg/injection, schedule: Q01DX005 (ip), vehicle: saline 93 % of control

CNc1ccccc1C(=O)N/N=C\c1ccc(Cl)cc1Cl
inactive: dose: 100.0 mg/kg/injection, schedule: Q04DX002 (ip), vehicle: Klucel (hydroxypropylcellulose) (HPC) 105 % of control | dose: 200.0 mg/kg/injection, schedule: Q04DX002 (ip), vehicle: Klucel (hydroxypropylcellulose) (HPC) 94 % of control | dose: 400.0 mg/kg/injection, schedule: Q04DX002 (ip), vehicle: Klucel (hydroxypropylcellulose) (HPC) 97 % of control

Cc1ccc(C(C)(O)c2cnc(C)n2Cc2ccccc2)cc1 (stereo not drawn)
inactive: dose: 100.0 mg/kg/injection, schedule: Q01DX001 (ip), vehicle: saline with Tween-80 97 % of control | dose: 100.0 mg/kg/injection, schedule: Q01DX009 (ip), vehicle: saline with Tween-80 95 % of control and 113 % of control | dose: 100.0 mg/kg/injection, schedule: Q04DX002 (ip), vehicle: saline with Tween-80 110 % of control and 92 % of control | [4] 101 % of control | dose: 200.0 mg/kg/injection, schedule: Q01DX001 (ip), vehicle: saline with Tween-80 97 % of control | dose: 200.0 mg/kg/injection, schedule: Q01DX009 (ip), vehicle: saline with Tween-80 98 % of control and 102 % of control | dose: 200.0 mg/kg/injection, schedule: Q04DX002 (ip), vehicle: saline with Tween-80 95 % of control and 97 % of control | [9] 103 % of control | dose: 400.0 mg/kg/injection, schedule: Q01DX001 (ip), vehicle: saline with Tween-80 91 % of control | dose: 400.0 mg/kg/injection, schedule: Q01DX009 (ip), vehicle: saline with Tween-80 91 % of control and 92 % of control | dose: 400.0 mg/kg/injection, schedule: Q04DX002 (ip), vehicle: saline with Tween-80 103 % of control and 88 % of control | [5] 98 % of control

CCOC(=O)C1=C(O)C(=O)C(C(=O)OCC)C1 (stereo not drawn)
inactive: dose: 75.0 mg/kg/injection, schedule: Q01DX001 (ip), vehicle: saline 86 % of control | dose: 150.0 mg/kg/injection, schedule: Q01DX001 (ip), vehicle: saline 106 % of control | dose: 300.0 mg/kg/injection, schedule: Q01DX001 (ip), vehicle: saline 90 % of control

O=[N+]([O-])c1ccc(O)c(/C=N/N2CCN(/N=C/c3cc([N+](=O)[O-])ccc3O)CC2)c1
inactive: [1] 91 % of control | [2] 97 % of control | [3] 97 % of control

O=C(NCCBr)c1cccc2ccccc12
inactive: dose: 100.0 mg/kg/injection, schedule: Q01DX009 (ip), vehicle: Klucel (hydroxypropylcellulose) (HPC) 106 % of control | dose: 200.0 mg/kg/injection, schedule: Q01DX009 (ip), vehicle: Klucel (hydroxypropylcellulose) (HPC) 97 % of control | dose: 400.0 mg/kg/injection, schedule: Q01DX009 (ip), vehicle: Klucel (hydroxypropylcellulose) (HPC) 95 % of control

CC(N)C(C)O (stereo not drawn)
inactive: [6] 96 % of control | [7] 101 % of control | [8] 101 % of control

CCCCCCCC(=O)NO
inactive: [4] 98 % of control | [9] 102 % of control | [5] 102 % of control

COC(=O)c1ccc(N(C)CCC(C)=O)cc1
inactive: dose: 100.0 mg/kg/injection, schedule: Q01DX001 (ip), vehicle: other 97 % of control | dose: 200.0 mg/kg/injection, schedule: Q01DX001 (ip), vehicle: other 95 % of control | dose: 400.0 mg/kg/injection, schedule: Q01DX001 (ip), vehicle: other 106 % of control
